This is an account of results in US9604982B2, “P2X7 modulators” (Janssen Pharmaceutica NV, priority 2013, dated 2017).

pIC50, pKi: −log10 of the molar value. Where two headings read alike, the source gives them in different places.

In test [1] the target is T1, P2X7 (Homo sapiens (Human), UniProt Q99572). As to the kind of experiment: P2X7 antagonism in human peripheral blood mononuclear cells (PBMCs), IL-1β release after LPS + Bz-ATP (ELISA). The class given is cell-based. As to conditions: 0.5 mM Bz-ATP; for remaining activity at 10 µM: read-out: PBMC 10 μM (% control); for PBMC 10 μM (% control): Table 3 (additional runs). As for the experimental part:
Human blood was collected using a blood donor program. […] Cells were incubated for an additional 1.5 hours. […] Data are analyzed and graphed on Graphpad Prism 5. […] The IC50 for each compound is then uploaded into 3DX.
(An ELISA detects its analyte on a solid surface through an enzyme-linked reagent.)

Test [2] concerns the target recombinant rat P2X7 channel (Rattus norvegicus (Rat), UniProt Q64663). Description: Ca2+ flux (FLIPR) in 1321N1 cells expressing recombinant rat P2X7 channel. The class given is cell-based. As to conditions: Table 3 (additional runs); 250 μM BzATP. As for the experimental part:
(§1) P2X7 Antagonism in Recombinant Human P2X7 Cells or Recombinant Rat P2X7 Cells: (a) Ca^2+ Flux and (b) Radioligand Binding
(§2) (a) Ca^2+ flux: 1321N1 cells expressing the recombinant human or rat P2X7 channel was cultured in HyQ DME/(HyClone/Dulbecco's Modified Eagle Medium) high glucose supplemented with 10% Fetal Bovine Serum (FBS) and appropriate selection marker. Cells were seeded at a density of 25000 cells/well (96-well clear bottom black walled plates) in 100 μl volume/well. On the day of the experiment, cell plates were washed with assay buffer, containing (in mM): 130 NaCl, 2 KCl, 1 CaCl2, 1 MgCl2, 10 HEPES, 5 glucose; pH 7.40 and 300 mOs. After the wash, cells were loaded with the Calcium-4 dye (Molecular Device) and incubated in the dark for 60 minutes. Test compounds were prepared at 250× the test concentration in neat DMSO. Intermediate 96-well compound plates were prepared by transferring 1.2 μL of the compound into 300 μL of assay buffer. A further 3× dilution occurred when transferring 50 μL/well of the compound plate to 100 μL/well in the cell plate. Cells were incubated with test compounds and dye for 30 minutes. […] The fluorescence change was measured 180 seconds after adding the agonist.
Background: Calcium flux is commonly read through the fluorescence of an indicator in the cells.

In test [3] the target is T1, P2X7. As to the kind of experiment: Ca2+ flux (FLIPR) in 1321N1 cells expressing recombinant human P2X7 channel. The class given is cell-based. The note with it: Table 3 (additional runs); 250 μM BzATP. The procedure:
as §1, §2

For test [4], the target named is T1, P2X7. As to the kind of experiment: Radioligand binding, human P2X7-1321N1 cell membranes, tracer tritiated A-804598. The note with it: Table 3 (additional runs). The procedure:
as §1
On the day of the experiment, cell membrane preparations were made according to standard published methods. […] The compound can be prepared as described in the literature. […] The assay was terminated by filtration (GF/B filters pre-soaked with 0.3% PEI) and washed with washing buffer (Tris-HCl 50 mM). The IC50 generated in the binding assay was corrected for tracer concentration and affinity of the tracer to derive at the affinity (K) of the test compounds. […] Data are analyzed and graphed on Graphpad Prism 5.

Where [5] appears, read: P2X7, Table 3 (additional runs), 10 μM compound.

recombinant rat P2X7 channel, sequence (Q64663 whole entry): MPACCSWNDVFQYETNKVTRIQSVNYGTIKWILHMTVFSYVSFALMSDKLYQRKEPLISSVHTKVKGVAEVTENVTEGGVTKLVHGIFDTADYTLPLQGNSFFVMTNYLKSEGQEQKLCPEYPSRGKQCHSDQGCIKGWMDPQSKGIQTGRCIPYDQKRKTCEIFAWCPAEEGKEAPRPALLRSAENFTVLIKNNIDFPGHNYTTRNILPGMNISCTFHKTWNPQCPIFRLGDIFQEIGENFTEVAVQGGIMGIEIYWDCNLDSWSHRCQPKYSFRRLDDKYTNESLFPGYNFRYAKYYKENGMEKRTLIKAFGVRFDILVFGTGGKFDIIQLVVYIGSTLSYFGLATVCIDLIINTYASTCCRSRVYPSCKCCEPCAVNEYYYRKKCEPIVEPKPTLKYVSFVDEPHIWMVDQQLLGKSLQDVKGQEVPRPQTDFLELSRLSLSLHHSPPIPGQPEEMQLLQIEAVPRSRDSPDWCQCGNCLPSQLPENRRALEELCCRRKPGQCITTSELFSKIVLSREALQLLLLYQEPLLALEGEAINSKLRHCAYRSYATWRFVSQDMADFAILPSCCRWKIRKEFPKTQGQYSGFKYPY
T1 sequence (Q99572 whole entry): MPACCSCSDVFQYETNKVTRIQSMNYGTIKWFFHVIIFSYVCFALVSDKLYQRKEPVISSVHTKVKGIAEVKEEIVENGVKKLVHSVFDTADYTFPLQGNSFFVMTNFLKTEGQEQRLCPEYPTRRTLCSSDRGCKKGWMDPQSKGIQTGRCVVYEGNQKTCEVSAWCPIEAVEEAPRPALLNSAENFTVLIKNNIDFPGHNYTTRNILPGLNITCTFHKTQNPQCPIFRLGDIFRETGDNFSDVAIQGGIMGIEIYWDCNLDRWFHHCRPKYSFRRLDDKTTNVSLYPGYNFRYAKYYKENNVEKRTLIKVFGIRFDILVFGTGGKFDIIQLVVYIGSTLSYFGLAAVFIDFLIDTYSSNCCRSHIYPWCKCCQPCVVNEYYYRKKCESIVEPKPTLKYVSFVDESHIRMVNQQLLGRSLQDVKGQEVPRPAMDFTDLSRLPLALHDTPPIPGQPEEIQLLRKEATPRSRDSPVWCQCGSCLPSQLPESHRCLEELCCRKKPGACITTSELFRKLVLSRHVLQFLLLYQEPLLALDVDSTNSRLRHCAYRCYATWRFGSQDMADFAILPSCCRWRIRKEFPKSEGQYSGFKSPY

Regarding `Cc1nc2c(c(-c3ccn[nH]3)n1)CC(C)N(C(=O)c1cccc(OC(F)(F)F)c1F)C2` (stereo not shown) [Example 139, (2,6-dimethyl-4-(1H-pyrazol-5-yl)-5,6-dihydropyrido[3,4-d]pyrimidin-7(8H)-yl)(2-fluoro-3-(trifluoromethoxy)phenyl)methanone], in test [1] (setting [5]), the remaining activity at 10 µM was 2%. In addition, the pIC50 (in general, −log10 of the IC50, conventionally taken in molar units) in test [2] was 5.84.
For `Cc1nc2c(c(-c3ccn[nH]3)n1)C[C@@H](C)N(C(=O)c1cccc(F)c1Cl)C2` (single isomer, unassigned) [Example 144, (R*)-(2-chloro-3-fluorophenyl)(2,6-dimethyl-4-(1H-pyrazol-5-yl)-5,6-dihydropyrido[3,4-d]pyrimidin-7(8H)-yl)methanone], in test [2], the pIC50 is 6.70.
Regarding `Cc1nc2c(c(-c3ccn[nH]3)n1)CC(C)N(C(=O)c1cccc(OC(F)(F)F)c1)C2` (stereo not shown) [Example 140, (2,6-dimethyl-4-(1H-pyrazol-5-yl)-5,6-dihydropyrido[3,4-d]pyrimidin-7(8H)-yl)(3-(trifluoromethoxy)phenyl)methanone], the remaining activity at 10 µM in test [1] (setting [5]) is 52.5%. Further, the pIC50 in test [3] was less than 5.00; in test [2], 4.33.
As to `Cc1nc2c(c(-c3ccn[nH]3)n1)C[C@H](C)N(C(=O)c1ccc(Cl)cc1F)C2` (single isomer, unassigned) [Example 89, (S*)-(4-chloro-2-fluorophenyl)(2,6-dimethyl-4-(1H-pyrazol-5-yl)-5,6-dihydropyrido[3,4-d]pyrimidin-7(8H)-yl)methanone], the pKi (commonly the negative decadic logarithm of the Ki, by convention in mol/L) in test [4] was 8.11.
For `Cc1nc2c(c(-c3ccn[nH]3)n1)C[C@@H](C)N(C(=O)c1cccc(OC(F)(F)F)c1)C2` (single isomer, unassigned) [Example 141, (R*)-(2,6-dimethyl-4-(1H-pyrazol-5-yl)-5,6-dihydropyrido[3,4-d]pyrimidin-7(8H)-yl)(3-(trifluoromethoxy)phenyl)methanone], the results for the pIC50 in test [3] and in test [2] were 5.05 and 4.91, respectively.
Take `Cc1nc2c(c(-c3ccn[nH]3)n1)CC(C)N(C(=O)c1cccc(F)c1Cl)C2` (stereo not shown) [Example 143, (2-chloro-3-fluorophenyl)(2,6-dimethyl-4-(1H-pyrazol-5-yl)-5,6-dihydropyrido[3,4-d]pyrimidin-7(8H)-yl)methanone]: the remaining activity at 10 µM in test [1] (setting [5]) stood at 11.9%. Moreover, in test [2], the pIC50 was 7.28.
`Cc1nc2c(c(-c3ccn[nH]3)n1)C[C@H](C)N(C(=O)c1cccc(C(F)(F)F)c1F)C2` (single isomer, unassigned) [Example 76, (S*)-(2,6-dimethyl-4-(1H-pyrazol-5-yl)-5,6-dihydropyrido[3,4-d]pyrimidin-7(8H)-yl)(2-fluoro-3-(trifluoromethyl)phenyl)methanone]: the remaining activity at 10 µM in test [1] (P2X7, Table 2, 10 μM compound) came to 14.3%.
In the case of `COc1cccc(C(=O)N2Cc3nc(C)nc(-c4ccn[nH]4)c3CC2C)c1C` (stereo not shown) [Example 146, (2,6-dimethyl-4-(1H-pyrazol-5-yl)-5,6-dihydropyrido[3,4-d]pyrimidin-7(8H)-yl)(3-methoxy-2-methylphenyl)methanone], in test [1] (setting [5]), the remaining activity at 10 µM was -0.8%. Besides, the negative logarithm of the IC50 (pIC50) in test [3] was 5.98; in test [2], less than 5.00.
Consider `COc1cncc(C(=O)N2Cc3nc(C)nc(-c4ccn[nH]4)c3CC2C)c1` (stereo not shown) [Example 147, (2,6-dimethyl-4-(1H-pyrazol-5-yl)-5,6-dihydropyrido[3,4-d]pyrimidin-7(8H)-yl)(5-methoxypyridin-3-yl)methanone], for which, in test [1] (setting [5]), the remaining activity at 10 µM is 110%.
`C[C@H]1c2ncnc(-c3ccn[nH]3)c2CCN1C(=O)c1ccc(Cl)c(F)c1Cl` (single isomer, unassigned) [Example 123, (S*)-(2,4-dichloro-3-fluorophenyl)(8-methyl-4-(1H-pyrazol-5-yl)-5,6-dihydropyrido[3,4-d]pyrimidin-7(8H)-yl)methanone]: in test [1] (P2X7, Table 2, 10 μM compound), the remaining activity at 10 µM was 13.3%.
For the compound `Cc1nc2c(c(-c3ccn[nH]3)n1)C[C@H](C)N(C(=O)c1ccc(Cl)cc1Cl)C2` (single isomer, unassigned) [Example 85, (S*)-(2,4-dichlorophenyl)(2,6-dimethyl-4-(1H-pyrazol-5-yl)-5,6-dihydropyrido[3,4-d]pyrimidin-7(8H)-yl)methanone], the remaining activity at 10 µM in test [1] (P2X7, Table 2, 10 μM compound) is -0.8%. For the same compound, the “PBMC 10 μM (% control)” value in test [1] (10 μM compound) was −0.8 % control.
Turning to `C[C@H]1c2ncnc(-c3ccn[nH]3)c2CCN1C(=O)c1cccc(C(F)(F)F)c1Cl` (single isomer, unassigned) [Example 114, (S*)-(2-chloro-3-(trifluoromethyl)phenyl)(8-methyl-4-(1H-pyrazol-5-yl)-5,6-dihydropyrido[3,4-d]pyrimidin-7(8H)-yl)methanone], in test [1] (P2X7, Table 2, 10 μM compound), the remaining activity at 10 µM was -0.5%. The “PBMC 10 μM (% control)” value in test [1] (10 μM compound) is −0.5 % control.
On the same counts, the results for `Cc1nc2c(c(-c3ccn[nH]3)n1)C[C@H](C)N(C(=O)c1ccc(Cl)c(F)c1Cl)C2` [Example 72, (S)-(2,4-dichloro-3-fluorophenyl)(2,6-dimethyl-4-(1H-pyrazol-5-yl)-5,6-dihydropyrido[3,4-d]pyrimidin-7(8H)-yl)methanone] are -2.6% and −2.6 % control.
Take `Cc1nc2c(c(-c3ccn[nH]3)n1)C[C@H](C)N(C(=O)c1cccc(C(F)(F)F)c1C)C2` (single isomer, unassigned) [Example 79, (S*)-(2,6-dimethyl-4-(1H-pyrazol-5-yl)-5,6-dihydropyrido[3,4-d]pyrimidin-7(8H)-yl)(2-methyl-3-(trifluoromethyl)phenyl)methanone]: the remaining activity at 10 µM in test [1] (P2X7, Table 2, 10 μM compound) amounted to 2.6%. In addition, the “PBMC 10 μM (% control)” value in test [1] (10 μM compound) was determined as 2.6 % control.
